{"source": "BindingDB's records for doi:10.1016/0960-894X(95)00483-A", "about": "(1995)", "biological_target": "Beta-2 adrenergic receptor (Rattus norvegicus) (UniProt P10608)", "sequence (P10608 whole entry, looked up)": "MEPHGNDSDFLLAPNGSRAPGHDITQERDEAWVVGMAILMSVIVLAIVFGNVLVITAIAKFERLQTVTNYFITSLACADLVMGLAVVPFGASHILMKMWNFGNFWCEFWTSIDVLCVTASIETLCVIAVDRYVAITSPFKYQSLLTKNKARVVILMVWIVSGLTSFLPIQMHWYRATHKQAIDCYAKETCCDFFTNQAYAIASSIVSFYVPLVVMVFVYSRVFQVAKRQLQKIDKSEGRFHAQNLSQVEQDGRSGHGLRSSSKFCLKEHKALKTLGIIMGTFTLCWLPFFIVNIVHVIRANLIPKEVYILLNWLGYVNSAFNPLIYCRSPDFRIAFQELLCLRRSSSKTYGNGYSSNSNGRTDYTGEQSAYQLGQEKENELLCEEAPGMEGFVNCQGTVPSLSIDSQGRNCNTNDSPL", "assay": "Agonistic activity against Beta-2 adrenergic receptor in rat uterus", "data": [{"smiles": "O=C(O)C1(C(=O)O)Oc2cc3c(cc2O1)C[C@@H](NC[C@H](O)c1cccc(Cl)c1)CCC3", "note": "[FR-165914]", "values": [{"measurement": "IC50", "result": "> 10", "unit": "µM"}]}]}
